Like-named read-outs stand apart in the source and are kept apart here.
Key:
[1] = system: Yarrowia lipolytica cells; assay: Relative copy number analysis (qPCR) of CAN1 fragment for off-target insertion of editing template by NHEJ; type: cell-based; settings: for Fraction of cells with single copy of CAN1 / Fraction of cells with ≥2 copies of CAN1: HDR-positive colonies
Experimental: An additional complication of repair of Cas9/gRNA generated double-stranded breaks using editing template is the possibility that the editing template can be incorporated by the NHEJ pathway at other regions of DNA damage. In order to determine the frequency at which this occurs in the cells treated with editing templates under the three different Scr-7 treatments, relative copy number analysis was performed looking for a 62 bp fragment of the CAN1 locus present in both the chromosome and the editing template (SEQ ID NO: 42). Relative copy number analysis was performed on colonies from cells treated with pRF303 (SEQ ID NO: 24) and linear editing template (SEQ ID NO: 34) under all three treatment conditions. If the editing template is only incorporated during the HDR of the Cas9/gRNA double strand break at the CAN1 locus (SEQ ID NO: 35) the cell will only carry a single copy of the copy number analysis fragment (SEQ ID NO: 42). However, if the cell incorporates additional copies of the editing template elsewhere in the genome due to the activity of the NHEJ pathway additional copies of the fragment will be present and the cell will return a higher relative copy number. Briefly, genomic DNA was isolated using standard techniques from colonies that scored positive for HDR of the Can1-1 Cas9/gRNA targeted double strand break. Genomic DNA was normalized to 5 ng/μl. 1 μl of the normalized genomic DNA from each colony was added to three replicate qPCR reactions for both the CAN1 locus (SEQ ID NO: 42), (primers used, AGCGCCAAACCCAAAGC, forward (SEQ ID NO: 43), […], reverse (SEQ ID NO: 44), and 6FAM-[…]-TAMRA, probe (SEQ ID NO: 45)) or as a control the TEF1 locus (SEQ ID NO: 56) (primers used, […], forward (SEQ ID NO: 47), […], reverse (SEQ ID NO: 48) and 6FAM-[…]-TAMRA, probe (SEQ ID NO: 49)). Reactions were run in TaqMAN universal PCR master mix (ABI life technologies) on a life technologies Quant Studio 7 instrument using the following cycling conditions 95° C. for 10 minutes followed by 40 cycles of 95° C. for 15 seconds, 60° C. for 1 minute. 6FAM fluorescence from the probes was monitored through the 40 cycles of the PCR and Ct values were collected. Relative gene copy number was determined by the ΔΔCt method (User Bulletin #2 ABI PRISM 7700 Sequence Detection System (Updated 2001)). Briefly, TEF1 Ct values were used to normalize the data for differences in cell copy number between genomic DNA samples. Genomic DNA from a wildtype strain was used as a reference for the relative quantification for the CAN1 copy number fragment (SEQ ID NO: 42). Software on the Quant studio 7 calculated relative gene copy number and corresponding error for each sample relative to the wildtype strain. The colonies were separated into two bins, those with a single relative copy of the CAN1 analysis fragment (SEQ ID NO: 42) and those with 2 or more relative copies (SEQ ID NO: 42). […] The second bin represents cells where the editing template was used to repair the Cas9/gRNA generated double-strand break at the Can1-1 target site (SEQ ID NO: 22) and was integrated at least once somewhere else in the genome via a NHEJ mechanism.

[2] = system: Yarrowia lipolytica cells
From the text: In this example Yarrowia lipolytica cells treated with the DNA Ligase IV inhibitor, Scr7, were transformed with targeting plasmids in the presence and absence of editing templates. Homology directed repair (HDR) occurs between an editing template and the target DNA when there are two regions of homology flanking a region of interest (FIG. 3). A DNA double-stranded break at a target site within the region of interest can initiate HDR replacing the region of interest (FIG. 3, white box) with a modified region of interest carried on the editing template. In this example the modified region of interest lacks the entire open-reading frame of the CAN1 gene.
Cells were phenotypically scored for Canavanine resistance to determine overall targeting efficiency (NHEJ+HDR). Colony PCR of the CAN1 locus (SEQ ID NO: 35) was performed to differentiate repair of the Cas9/gRNA generated double-strand break by HDR or NHEJ.
Three different treatment conditions were tested: Untreated, Scr7-A, and Scr7-B (A schematic of the three treatments is shown in FIG. 4). For all three conditions a uracil auxotrophic strain of Yarrowia lipolytica ATCC20362 was used For the untreated condition the strain was grown for 24 hours on YPD medium plates (Teknova) at 30° C. (also referred to as a pretreatment). 1 loop of cells were resuspended in transformation buffer (35% polyethylene glycol average molecular weight of 3550, 100 mM lithium acetate, 100 mM dithiothreitol, 10 mM Tris, 1 mM EDTA pH 6.0). 100 μl of cell suspension was mixed with 100 ng of either pRF291 (SEQ ID NO: 18) (Cas9 expression, no gRNA) or pRF303 (SEQ ID NO: 24) (Cas9 expression, Can1-1 gRNA expression) with either no editing template or 1 μg linear editing template (SEQ ID NO: 34). Transformation mixtures were incubated at 39° C. for 1 hour at 800 RPM. Transformation mixtures were plated on complete minimal medium plates lacking uracil (Teknova) to select for cells transformed with plasmid DNA. Plates were incubated at 30° C. for 48 hours.
For treatment Scr7-A the strain was grown for 24 hours on YPD medium plates (Teknova) at 30° C. (also referred to as a pretreatment). 1 loop of cells were resuspended in modified transformation buffer (35% polyethylene glycol average molecular weight of 3550, 100 mM lithium acetate, 100 mM dithiothreitol, 10 mM Tris, 1 mM EDTA pH 6.0, 5 μM Scr7). 100 μl of cell suspension was mixed with 100 ng of either pRF291 (SEQ ID NO:18) (Cas9 expression, no gRNA) or pRF303 (SEQ ID NO: 24) (Cas9 expression, Can1-1 gRNA expression) with either no editing template or 1 μg linear editing template (SEQ ID NO: 31). Transformation mixtures were incubated at 39° C. for 1 hour at 800 RPM. Transformation mixtures were plated on complete minimal medium plates lacking uracil (Teknova) to select for cells transformed with plasmid DNA. Plates were incubated at 30° C. for 48 hours.
For treatment Scr7-B the strain was grown for 24 hours on YPD medium plates containing 5 μM Scr7 at 30° C. (also referred to as a pretreatment). 1 loop of cells were resuspended in modified transformation buffer (35% polyethylene glycol average molecular weight of 3550, 100 mM lithium acetate, 100 mM dithiothreitol, 10 mM Tris, 1 mM EDTA pH 6.0, 5 μM Scr7). 100 μl of cell suspension was mixed with 100 ng of either pRF291 (SEQ ID NO:18) (Cas9 expression, no gRNA) or pRF303 (SEQ ID NO: 24) (Cas9 expression, Can1-1 gRNA expression) with either no editing template or 1 μg linear editing template (SEQ ID NO: 31). Transformation mixtures were incubated at 39° C. for 1 hour at 800 RPM. Transformation mixtures were plated on complete minimal medium containing 5 μM Scr-7 plates lacking uracil. Plates were incubated at 30° C. for 48 hours.
For each condition, 24 colonies from each transformation were streak purified on complete minimal plates lacking uracil (Teknova) for single colonies.

[3] = system: Yarrowia lipolytica cells; assay: Colony PCR of the CAN1 locus to determine frequency of HDR at Cas9/gRNA double-strand breaks; type: cell-based; settings: for Fold HDR over untreated (±SEM) / HDR Frequency (±SEM): pRF303, Can1-1 target site, with editing template
Experimental: To determine the frequency of HDR at the targeted double-strand breaks generated by Cas9/gRNA at the Can1-1 target site Yarrowia colony PCR of the CAN1 locus (SEQ ID NO: 40) (primers used, […], forward (SEQ ID NO: 38) and […], reverse (SEQ ID NO: 39)) was performed using standard techniques. If the CAN1 locus was unmodified or contained a small indel generated by NHEJ the colony PCR result would give a band similar in size to the WT CAN1 locus at an apparent size of 2125 bp (SEQ ID NO: 40). If the Cas9/gRNA generated double-strand break had been repaired using the editing templates the PCR would generate a smaller CAN1 locus product 392 bp indicating the deletion of the entire open-reading frame (SEQ ID NO: 41). Colony PCR was performed on all canavanine resistant colonies from cells transformed with pRF303 in the presence of editing template and the fraction of cells where the Cas9/gRNA generated double-strand break was repaired via HDR with the editing template and various Scr-7 treatment schemes was determined (Table 1).

[4] = Scr7 treatment A, pRF303 and linear editing template
[5] = Scr7 treatment B, pRF303 and linear editing template

SMILES: O=c1[nH]c(=S)[nH]c(N=Cc2ccccc2)c1N=Cc1ccccc1 [Scr7]
- Fraction of cells with single copy of CAN1 [1, 4]: 0.38
- Fraction of cells with ≥2 copies of CAN1 [1, 4]: 0.63
- Fraction of cells with single copy of CAN1 [1, 5]: 1
- Fraction of cells with ≥2 copies of CAN1 [1, 5]: 0
- Colonies with a single copy of the CAN1 editing template ([1]; Scr-7 treatment A, pRF303 and linear editing template): approximately 40%
- Colonies with only a single copy of the CAN1 locus ([1]; Scr-7 treatment B, pRF303 and editing template): 100%
- Canavanine resistance frequency (±Std. Dev) ([2]; Scr7 treatment A (5 μM Scr7 in transformation buffer), pRF291 (Cas9, no gRNA), no editing template): 0 ± 0
- Canavanine resistance frequency (±Std. Dev) ([2]; Scr7 treatment A, pRF291 (Cas9, no gRNA), with editing template): 0 ± 0
- Canavanine resistance frequency (±Std. Dev) ([2]; Scr7 treatment A, pRF303 (Can1-1 gRNA), no editing template): 62.2 ± 6.7
- Canavanine resistance frequency (±Std. Dev) ([2]; Scr7 treatment A, pRF303 (Can1-1 gRNA), with editing template): 64.2 ± 6.4
- Canavanine resistance frequency (±Std. Dev) ([2]; Scr7 treatment B (5 μM Scr7 in 24 h pretreatment, transformation buffer and selection plates), pRF291 (Cas9, no gRNA), no editing template): 0 ± 0
- Canavanine resistance frequency (±Std. Dev) ([2]; Scr7 treatment B, pRF291 (Cas9, no gRNA), with editing template): 0 ± 0
- Canavanine resistance frequency (±Std. Dev) ([2]; Scr7 treatment B, pRF303 (Can1-1 gRNA), no editing template): 68.7 ± 6.3
- Canavanine resistance frequency (±Std. Dev) ([2]; Scr7 treatment B, pRF303 (Can1-1 gRNA), with editing template): 64.6 ± 20.3
- Canavanine resistant cells ([2]; pRF291 (Cas9, no functional gRNA), regardless of Scr-7 treatment scheme): did not give rise to Canavanine resistance cells
- Fold HDR over untreated (±SEM) ([3]; Scr7 treatment A): 0.9 ± 0.1 fold
- HDR Frequency (±SEM) ([3]; Scr7 treatment A): 9.7 ± 1.4
- Fold HDR over untreated (±SEM) ([3]; Scr7 treatment B): 1.5 ± 0.3 fold
- HDR Frequency (±SEM) ([3]; Scr7 treatment B): 16.7 ± 4.8
- Fold HDR over untreated (±SEM) ([3]; Scr7 treatment B, listed as Scr-7): 1.5 fold
- Fraction of breaks repaired via HDR, as % of the frequency of untreated or short Scr-7 treatment A ([3]; extended Scr-7 treatment B, linear editing template): 150%
